According to PubChem BioAssay AID330 (DTP/NCI, 2004):
“And” between values parts separate entries of the source, which are not always exact repeats. Equal entries are not always repeated. Inconclusive results and toxic doses are left out.

Tested on: P388 leukemia ip, CD2F1 mice, survival T/C
Test: NCI In Vivo Anticancer Drug Screen. Data for tumor model P388 Leukemia (intraperitoneal) in CD2F1 (CDF1) mice
Settings: endpoint: median survival time, higher = longer survival
Procedure, shortened: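 Mice carrying the transplanted tumor received test compound or vehicle. Survival was recorded in each group, and the value is the treated-group measurement divided by that of the vehicle-treated control group.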

[1] = dose: 50.0 mg/kg/injection, schedule: Q01DX005 (ip), vehicle: saline
[2] = dose: 100.0 mg/kg/injection, schedule: Q01DX005 (ip), vehicle: saline
[3] = dose: 200.0 mg/kg/injection, schedule: Q01DX005 (ip), vehicle: saline
[4] = dose: 50.0 mg/kg/injection, schedule: Q01DX009 (ip), vehicle: saline with Tween-80
[5] = dose: 100.0 mg/kg/injection, schedule: Q01DX009 (ip), vehicle: saline with Tween-80
[6] = dose: 60.0 mg/kg/injection, schedule: Q01DX005 (ip), vehicle: saline with Tween-80
[7] = dose: 120.0 mg/kg/injection, schedule: Q01DX005 (ip), vehicle: saline with Tween-80
[8] = dose: 240.0 mg/kg/injection, schedule: Q01DX005 (ip), vehicle: saline with Tween-80

`CCN1CCCC(OC(=O)c2cccc3[nH]ccc23)C1` (configuration not stated) was tested, and the T/C (dose: 3.13 mg/kg/injection, schedule: Q01DX009 (ip), vehicle: saline with Tween-80) was 118 % of control, the T/C (dose: 6.25 mg/kg/injection, schedule: Q01DX009 (ip), vehicle: saline with Tween-80) was 103 % of control and the T/C (dose: 12.5 mg/kg/injection, schedule: Q01DX009 (ip), vehicle: saline with Tween-80) was 98 % of control. For the same compound, the T/C (dose: 25.0 mg/kg/injection, schedule: Q01DX009 (ip), vehicle: saline with Tween-80) was 99 % of control.
For `CNc1nc(-c2ccc(C(C)(C)C)cc2)c(-c2ccc(C(C)(C)C)cc2)[nH]1`, the T/C (dose: 25.0 mg/kg/injection, schedule: Q04DX002 (ip), vehicle: saline with Tween-80) was 117 % of control and 96 % of control and the T/C (dose: 50.0 mg/kg/injection, schedule: Q04DX002 (ip), vehicle: saline with Tween-80) was 107 % of control and 121 % of control.
In the case of `CC(C)(C)CC(C)(C)c1ccc(O)c(O)c1`, the T/C (dose: 25.0 mg/kg/injection, schedule: Q01DX005 (ip), vehicle: saline) is reported as 100 % of control, the T/C [1] is reported as 101 % of control and the T/C [2] is reported as 106 % of control. For the same compound, the T/C (dose: 100.0 mg/kg/injection, schedule: Q01DX009 (ip), vehicle: saline) was 106 % of control and 94 % of control, the T/C [3] was 110 % of control and the T/C (dose: 400.0 mg/kg/injection, schedule: Q01DX009 (ip), vehicle: saline) was 94 % of control.
`CC(O)(c1ccc(Br)cc1)C1CC1` (configuration not stated) was tested, and the T/C (dose: 100.0 mg/kg/injection, schedule: Q01DX001 (ip), vehicle: Klucel (hydroxypropylcellulose) (HPC)) was 103 % of control, the T/C (dose: 200.0 mg/kg/injection, schedule: Q01DX001 (ip), vehicle: Klucel (hydroxypropylcellulose) (HPC)) was 91 % of control and the T/C (dose: 400.0 mg/kg/injection, schedule: Q01DX001 (ip), vehicle: Klucel (hydroxypropylcellulose) (HPC)) was 96 % of control.
In the case of `CC1(C)OCC(C2OC(O)C3OC(C)(C)OC32)O1` (configuration not stated), the T/C [1] is reported as 100 % of control, the T/C [2] is reported as 101 % of control and the T/C [3] is reported as 107 % of control.
For `CN(CC(=O)C(O)C(O)C(O)CO)c1ccccc1` (configuration not stated), the T/C [1] was 99 % of control, the T/C [2] was 100 % of control and the T/C [3] was 100 % of control.
With `COc1ccc2cc1-c1cc(ccc1O)CCC(O)CC1CCCC(CC(OC(C)=O)CC2)N1` (configuration not stated) the T/C (dose: 15.0 mg/kg/injection, schedule: Q01DX009 (ip), vehicle: Klucel (hydroxypropylcellulose) (HPC)) was 107 % of control, the T/C (dose: 30.0 mg/kg/injection, schedule: Q01DX009 (ip), vehicle: Klucel (hydroxypropylcellulose) (HPC)) was 100 % of control and the T/C (dose: 60.0 mg/kg/injection, schedule: Q01DX009 (ip), vehicle: Klucel (hydroxypropylcellulose) (HPC)) was 100 % of control.
`NC(CSCCSCC(N)C(=O)O)C(=O)O` (configuration not stated) was tested, and the T/C (dose: 50.0 mg/kg/injection, schedule: Q01DX009 (ip), vehicle: Klucel (hydroxypropylcellulose) (HPC)) was 110 % of control, the T/C (dose: 100.0 mg/kg/injection, schedule: Q01DX009 (ip), vehicle: Klucel (hydroxypropylcellulose) (HPC)) was 98 % of control and the T/C (dose: 200.0 mg/kg/injection, schedule: Q01DX009 (ip), vehicle: Klucel (hydroxypropylcellulose) (HPC)) was 104 % of control.
`CCCCCCN(CCCCCC)CC(O)c1cccc2ccc(Cl)cc12` (configuration not stated) was tested, and the T/C (dose: 50.0 mg/kg/injection, schedule: Q01DX005 (ip), vehicle: saline with Tween-80) was 90 % of control, the T/C (dose: 100.0 mg/kg/injection, schedule: Q01DX005 (ip), vehicle: saline with Tween-80) was 95 % of control and the T/C (dose: 200.0 mg/kg/injection, schedule: Q01DX005 (ip), vehicle: saline with Tween-80) was 109 % of control.
`COc1cc(C2c3cc4c(cc3CC3COC(=O)C32)OCO4)cc(OC)c1O` (configuration not stated) was tested, and the T/C (dose: 0.5 mg/kg/injection, schedule: Q01DX009 (ip), vehicle: saline with Tween-80) was 105 % of control, the T/C (dose: 1.0 mg/kg/injection, schedule: Q01DX009 (ip), vehicle: saline with Tween-80) was 103 % of control and the T/C (dose: 2.0 mg/kg/injection, schedule: Q01DX009 (ip), vehicle: saline with Tween-80) was 114 % of control. For the same compound, the T/C (dose: 3.1 mg/kg/injection, schedule: Q01DX009 (ip), vehicle: saline with Tween-80) was 123 % of control and the T/C (dose: 4.0 mg/kg/injection, schedule: Q01DX009 (ip), vehicle: saline with Tween-80) was 107 % of control.
For `Cc1cc(NC(=O)NCCOc2ccc(N3C(N)=NC(N)=NC3(C)C)cc2Cl)ccc1S(=O)(=O)F`, the T/C (dose: 12.5 mg/kg/injection, schedule: Q04DX003 (ip), vehicle: saline sonified) was 100 % of control, the T/C (dose: 25.0 mg/kg/injection, schedule: Q04DX003 (ip), vehicle: saline sonified) was 100 % of control and the T/C (dose: 50.0 mg/kg/injection, schedule: Q04DX003 (ip), vehicle: saline sonified) was 100 % of control.
In the case of `CSc1cc(SC)c(SC)nn1`, the T/C [4] is reported as 106 % of control, the T/C [5] is reported as 109 % of control and the T/C (dose: 200.0 mg/kg/injection, schedule: Q01DX009 (ip), vehicle: saline with Tween-80) is reported as 98 % of control.
For `CCCCCCCCCCSCC(CO)NC(=O)/C=C/c1c(C)[nH]c(=O)[nH]c1=O` (configuration not stated), the T/C (dose: 3.13 mg/kg/injection, schedule: Q01DX009 (ip), vehicle: distilled water + Tween-80) was 104 % of control, the T/C (dose: 6.25 mg/kg/injection, schedule: Q01DX009 (ip), vehicle: distilled water + Tween-80) was 112 % of control and the T/C (dose: 6.25 mg/kg/injection, schedule: Q01DX009 (ip), vehicle: other) was 114 % of control and 117 % of control. For the same compound, the T/C (dose: 12.5 mg/kg/injection, schedule: Q01DX009 (ip), vehicle: distilled water + Tween-80) was 110 % of control, the T/C (dose: 12.5 mg/kg/injection, schedule: Q01DX009 (ip), vehicle: other) was 114 % of control and 115 % of control and the T/C (dose: 25.0 mg/kg/injection, schedule: Q01DX009 (ip), vehicle: distilled water + Tween-80) was 99 % of control and 110 % of control. For the same compound, the T/C (dose: 50.0 mg/kg/injection, schedule: Q01DX009 (ip), vehicle: distilled water + Tween-80) was 106 % of control and 112 % of control, the T/C (dose: 50.0 mg/kg/injection, schedule: Q01DX009 (ip), vehicle: other) was 93 % of control and the T/C (dose: 100.0 mg/kg/injection, schedule: Q01DX009 (ip), vehicle: distilled water + Tween-80) was 108 % of control. The T/C (dose: 100.0 mg/kg/injection, schedule: Q01DX009 (ip), vehicle: other) was 155 % of control.
`COc1cccc2c1C(=O)c1c(O)c3c(c(O)c1C2=O)CC(O)(c1csc(N2CCN(C)CC2)n1)CC3O` (configuration not stated) was tested, and the T/C (dose: 1.56 mg/kg/injection, schedule: Q01DX009 (ip), vehicle: water) was 87 % of control, the T/C (dose: 3.13 mg/kg/injection, schedule: Q01DX009 (ip), vehicle: water) was 93 % of control and the T/C (dose: 6.25 mg/kg/injection, schedule: Q01DX009 (ip), vehicle: water) was 110 % of control. For the same compound, the T/C (dose: 12.5 mg/kg/injection, schedule: Q01DX009 (ip), vehicle: water) was 110 % of control, the T/C (dose: 25.0 mg/kg/injection, schedule: Q01DX009 (ip), vehicle: water) was 105 % of control and 116 % of control and the T/C (dose: 50.0 mg/kg/injection, schedule: Q01DX009 (ip), vehicle: water) was 102 % of control. For the same compound, the T/C (dose: 100.0 mg/kg/injection, schedule: Q01DX009 (ip), vehicle: water) was 107 % of control.
For `O=C(O)C1CC[N-]CC1.O=C(O)C1CC[N-]CC1.O=C(O)C1CC[N-]CC1.O=C(O)C1CC[N-]CC1.[Cl][Rh][Cl]`, the T/C (dose: 67.0 mg/kg/injection, schedule: Q01DX009 (ip), vehicle: saline with Tween-80) was 100 % of control, the T/C [5] was 109 % of control and the T/C (dose: 150.0 mg/kg/injection, schedule: Q01DX009 (ip), vehicle: saline with Tween-80) was 113 % of control.
For `CN(C)CCN(Cc1ccccc1)c1ccc2ccccc2n1`, the T/C (dose: 6.25 mg/kg/injection, schedule: Q01DX005 (ip), vehicle: Klucel (hydroxypropylcellulose) (HPC)) was 97 % of control, the T/C (dose: 12.5 mg/kg/injection, schedule: Q01DX005 (ip), vehicle: Klucel (hydroxypropylcellulose) (HPC)) was 97 % of control and the T/C (dose: 25.0 mg/kg/injection, schedule: Q01DX005 (ip), vehicle: Klucel (hydroxypropylcellulose) (HPC)) was 99 % of control.
With `Cc1cc(Cl)ccc1NC(=O)N1CCCCC1` the T/C (dose: 60.0 mg/kg/injection, schedule: Q01DX005 (ip), vehicle: Klucel (hydroxypropylcellulose) (HPC)) was 96 % of control, the T/C (dose: 120.0 mg/kg/injection, schedule: Q01DX005 (ip), vehicle: Klucel (hydroxypropylcellulose) (HPC)) was 96 % of control and the T/C (dose: 240.0 mg/kg/injection, schedule: Q01DX005 (ip), vehicle: Klucel (hydroxypropylcellulose) (HPC)) was 93 % of control.
`COc1ccc(C2=C(C#N)C(=O)OCCN2C)cc1` was tested, and the T/C [6] was 94 % of control, the T/C [7] was 100 % of control and the T/C [8] was 101 % of control.
For `CC1C(N)CC2CC1C2(C)C` (configuration not stated), the T/C [4] was 104 % of control and the T/C [5] was 112 % of control.
With `O=C1CCS(=O)(=O)c2ccccc21` the T/C [4] was 100 % of control.
`CCOC(=O)N(CCN(C(=O)OCC)C1CCCCC1)C1CCCCC1` was tested, and the T/C [6] was 99 % of control, the T/C (dose: 100.0 mg/kg/injection, schedule: Q04DX002 (ip), vehicle: saline with Tween-80) was 100 % of control and the T/C [7] was 99 % of control. The T/C (dose: 200.0 mg/kg/injection, schedule: Q04DX002 (ip), vehicle: saline with Tween-80) was 90 % of control, the T/C [8] was 89 % of control and the T/C (dose: 400.0 mg/kg/injection, schedule: Q04DX002 (ip), vehicle: saline with Tween-80) was 89 % of control.
In the case of `CN(C)N1C(=O)C2C3C=CC(O3)C2C1=O` (configuration not stated), the T/C [1] is reported as 104 % of control, the T/C [2] is reported as 109 % of control and the T/C [3] is reported as 100 % of control.
